Measured values: BindingDB's records for doi:10.1021/jm00119a003 (Northeastern University, 1988)

Target: D(1A) dopamine receptor (Canis familiaris)
Experiment: Ability to inhibit the binding of [3H]-SCH- 23390 to canine striatal membrane

Kd: 0.15 nM
Compound: CN1CCc2cc(I)c(O)cc2C(c2ccc(N=[N+]=[N-])cc2)C1 (stereo unspecified) [5-(4-Azido-phenyl)-8-iodo-3-methyl-2,3,4,5-tetrahydro-1H-benzo[d]azepin-7-ol]
